Where two headings read alike, the source gives them in different places.
Columns and labels:
[1] = tested on: hypercholesterolemic atherosclerosis, New Zealand White rabbits; settings: cited from earlier work
[2] = tested on: Atherosclerotic plaques, New Zealand White rabbits; assay: Development of atherosclerotic plaques in rabbits on experimental diets (Example 1); format: in vivo; settings: control diet without cholesterol; flaxseed 15% of diet or SDG 15 mg/kg oral; 2 months
Protocol: (§1) Experiments were carried out on six to eight week old female New Zealand white rabbits weighing between 1.8 and 2.0 kg. All procedures relating to the care and welfare of test animals within this experimental protocol conformed to a Standard Operating Procedure (SOP) approved by the Council on Animal Care, University of Saskatchewan, Saskatoon, Saskatchewan, Canada.
(§2) Blood samples for measurement of triglycerides (TG), total cholesterol (TC), low density lipoprotein cholesterol (LDL-C), very-low density lipoprotein cholesterol (VLDL-C), and high density lipoprotein cholesterol (HDL-C) were taken before the animals were assigned to the experimental diet (T=0), and after 1 (T=1) and 2 months (T=2) on the experimental diet. The rabbits were sacrificed under pentabarbital anesthesia at the end of 2 months. The aorta was removed for the assessment of atherosclerotic plaques.
(§3) Much has been made of the importance of the composition of certain dietary fats toward health, particularly in relation to the degree of saturation of the fatty acid composition of the triglycerides.

[3] = tested on: New Zealand white rabbits; assay: Serum lipids (TC, LDL-C, VLDL-C, HDL-C, triglycerides) in rabbits on experimental diets (Example 1); format: in vivo
Protocol: as §1
as §2, with “plaques. […]” for “plaques.”

[4] = Body weight of hypercholesterolemic rabbits (Example 1); format: in vivo, New Zealand white rabbits
Protocol: as §1, §2, §3

[5] = tested on: New Zealand white rabbits; assay: Serum lipids in rabbits (Example 4); format: in vivo; settings: + 1% cholesterol
Protocol: as §1, §2

[6] = Body weight of hypercholesterolemic rabbits (Example 4); format: in vivo, New Zealand White rabbits; settings: + 1% cholesterol
Protocol: as §1, §2

[7] = tested on: hypercholesterolemic atherosclerosis, New Zealand White rabbits; assay: Comparison with other compounds: hypercholesterolemic atherosclerosis and total cholesterol in rabbits; format: in vivo; settings: compared with Vitamin E
Source text: The effect of Probucol on reducing atherosclerosis varied between 15-45%, depending upon the extent of the hypercholesterolemia.
The mechanism of action for Vitamin E is now generally accepted as preventing the development of hypercholesterolemic atherosclerosis through its antioxidant activity and its ability to scavenge free radicals in the bloodstream.

[8] = tested on: endotoxic shock, anesthetized dogs; assay: Endotoxic-shock-induced changes in cardiovascular function, contractility, MDA and antioxidant reserve in anesthetized dogs (Example 2); format: in vivo; settings: SDG 10 mg/kg i.v. 15 min prior to endotoxin 5 mg/kg i.v.
Protocol: The dogs were divided into three groups. Group I, (sham 3 hours, n=5). Group II, (ET, n=9), these dogs received endotoxin (5 mg/kg, intravenously). […] Mean aortic blood pressure (mAo), cardiac index (CI) a measure of cardiac function, and cardiac contractility (dp/dt at CPIP/PAW) were measured before (0 min) and at 30 min, 60 min, 90 min, 120 min and 180 min after endotoxin administration. At the end of 3 hours of experiment heart was removed for measurement of MDA and antioxidant reserve. Cardiac function and contractility were measured. Left ventricular MDA (LV-MDA) and left ventricular chemiluminescence (LV-CL) a measure of antioxidant reserve were also estimated.

[9] = tested on: streptozotocin-induced diabetes mellitus, Sprague-Dawley rats; assay: Streptozotocin-induced diabetes mellitus in rats (Example 3); format: in vivo; settings: for Plasma Glucose: mean + S.E., P<0.05 vs Group I and vs Group II
Protocol: Experimental diabetes mellitus was produced in Sprague-Dawley rats by injecting streptozotocin (STZ, 65 mg/kg) intravenously. Diagnosis of diabetes mellitus was established by testing for the presence of glucosuria with Ames Multi Stix (Miles Canada Inc., Etobicoke, Ontario) on the 3rd day after streptozotocin administration. The rats were divided into 4 groups.

[10] = tested on: diabetes mellitus, BBdp rats; assay: Spontaneously developing IDDM in diabetic prone BB (BBdp) rats (Example 5); format: in vivo; settings: SDG 22 mg/kg daily
Protocol: Two animal models of IDDM used were: streptozotocin-induced and diabetic prone (dp) BB rats (BBdp). The Zucker diabetic fatty rat (ZDF), an animal model closely resembling human NIDDM, was used for NIDDM.
BBdp rats develop diabetes melliuts spontaneously. […] Serum malondialdehyde (MDA) a measure of levels of oxygen radicals, and antioxidant reserve [pancreatic-chemiluminescence (Pancreatic-CL)] were assessed in blood and pancreas. Male 35-day old BBdp and age matched nondiabetic prone BE (BBn) rats were obtained from Animal Resources Division, Health Protection Branch (Ottawa, Canada).
Two rats from BBn and 4 rats from BBdp at the age of 35 days were sacrificed to measure serum glucose and MDA, and pancreatic MDA and antioxidant reserve. […] Diagnosis of diabetes mellitus was established by testing for the presence of glucosuria which was done every altenate day for 120 days or until glucosuria appeared. Once they developed diabetes or at the end of 120 days rats were anesthetized with nembutal sodium. Blood samples were taken to measure serum glucose and MDA, and pancreas were removed to assess pancreatic MDA and antioxidant reserve. None of the BBdp rats tested positive for glucosuria at 5 weeks and at that age the serum glucose in BBn and BBdp rats were 8.75±0.63 and 10.03±0.65 mmoles/L respectively.

[11] = tested on: NIDDM, Zucker diabetic fatty rat (ZDF); assay: NIDDM in Zucker diabetic fatty rats (Example 5); format: in vivo; settings: SDG 22 mg/kg daily orally in drinking water; two rats examined; two untreated rats showed clear signs
Protocol: Oxidative stress was assessed by measuring lipid peroxidation product malondialdehyde (MDA) a measure of levels of oxygen radicals, and tissue chemiluminescence (CL) an index of antioxidant reserve in blood and pancreatic tissue. Male 5-6 weeks old ZDF and age match Zucker lean control (ZLC) rats were obtained from Charles River, St. Constant, Quebec, Canada.
Rats were tested for glucosuria to establish diabetes at 5-6 weeks before they were assigned to various groups. None of the rats had glucosuria at this age. […] At the end of the protocol, under anesthesia, blood samples were taken to measure serum glucose and MDA, and pancreas were removed to assess pancreatic MDA and antioxidant reserve.

[12] = 0 month, + 1% cholesterol group
[13] = 0 month, control diet without cholesterol
[14] = 1 month, + 1% cholesterol, flaxseed 15% or SDG 15 mg/kg oral
[15] = 1 month, control diet without cholesterol, flaxseed 15% or SDG 15 mg/kg oral
[16] = 2 months, + 1% cholesterol, flaxseed 15% or SDG 15 mg/kg oral
[17] = 2 months, control diet without cholesterol, flaxseed 15% or SDG 15 mg/kg oral
[18] = 0 months, SDG 5 mg/kg or SDG (89% pure) 11.24 mg/kg group
[19] = 1 month, SDG 5 mg/kg or SDG (89% pure) 11.24 mg/kg, orally daily
[20] = 2 months, SDG 5 mg/kg or SDG (89% pure) 11.24 mg/kg, orally daily
[21] = SDG 22 mg/kg orally for 3 days + STZ 65 mg/kg i.v., 12 rats/group
[22] = SDG 44 mg/kg orally for 3 days + STZ 65 mg/kg i.v., 10 rats/group

CC(C)(Sc1cc(C(C)(C)C)c(O)c(C(C)(C)C)c1)Sc1cc(C(C)(C)C)c(O)c(C(C)(C)C)c1 [Probucol]
reduction of hypercholesterolemic atherosclerosis ([1]; Probucol 0.5% in the diet (equivalent to 250 mg/Kg), 0.5% cholesterol diet): up to 43%
total cholesterol in the bloodstream ([1]; Probucol 0.5% in the diet, 0.5% cholesterol diet): did not reduce the total cholesterol
effect on reducing atherosclerosis ([1]; Probucol, depending upon the extent of the hypercholesterolemia): 15-45%

COc1cc(CC(COC2OC(CO)C(O)C(O)C2O)C(COC2OC(CO)C(O)C(O)C2O)Cc2ccc(O)c(OC)c2)ccc1O (stereo not drawn) [SDG, secoisolariciresinol diglucoside]
Atherosclerotic plaques (% of total internal surface area) [2]: 0 % of total internal surface ar
Serum HDL-C levels [3, 12]: 0.62 ± 0.10 mmol/L
Serum LDL-C levels [3, 12]: 1.09 ± 0.19 mmol/L
Serum Triglyceride levels [3, 12]: 1.21 ± 0.09 mmol/L
Serum VLDL-C levels [3, 12]: 0.55 ± 0.04 mmol/L
Total serum cholesterol levels [3, 12]: 2.26 ± 0.25 mmol/L
Serum HDL-C levels [3, 13]: 0.58 ± 0.09 mmol/L
Serum LDL-C levels [3, 13]: 0.34 ± 0.09 mmol/L
Serum Triglyceride levels [3, 13]: 1.10 ± 0.13 mmol/L
Serum VLDL-C levels [3, 13]: 0.50 ± 0.06 mmol/L
Total serum cholesterol levels [3, 13]: 1.42 ± 0.11 mmol/L
Serum HDL-C levels [3, 14]: 1.30 ± 0.18 mmol/L
Serum LDL-C levels [3, 14]: 66.26 ± 7.23 mmol/L
Serum Triglyceride levels [3, 14]: 1.40 ± 0.17 mmol/L
Serum VLDL-C levels [3, 14]: 0.64 ± 0.08 mmol/L
Total serum cholesterol levels [3, 14]: 68.20 ± 7.41 mmol/L
Serum HDL-C levels [3, 15]: 0.60 ± 0.06 mmol/L
Serum LDL-C levels [3, 15]: 0.33 ± 0.06 mmol/L
Serum Triglyceride levels [3, 15]: 0.63 ± 0.02 mmol/L
Serum VLDL-C levels [3, 15]: 0.29 ± 0.01 mmol/L
Total serum cholesterol levels [3, 15]: 1.22 ± 0.11 mmol/L
Serum HDL-C levels [3, 16]: 1.20 ± 0.48 mmol/L
Serum LDL-C levels [3, 16]: 43.25 ± 6.64 mmol/L
Serum Triglyceride levels [3, 16]: 1.83 ± 0.35 mmol/L
Serum VLDL-C levels [3, 16]: 0.83 ± 0.16 mmol/L
Total serum cholesterol levels [3, 16]: 45.18 ± 6.68 mmol/L
Serum HDL-C levels [3, 17]: 0.50 ± 0.00 mmol/L
Serum LDL-C levels [3, 17]: 0.25 ± 0.04 mmol/L
Serum Triglyceride levels [3, 17]: 0.60 ± 0.12 mmol/L
Serum VLDL-C levels [3, 17]: 0.27 ± 0.02 mmol/L
Total serum cholesterol levels [3, 17]: 1.12 ± 0.10 mmol/L
Body weight [4, 12]: 1.25 ± 0.03 kg
Body weight [4, 13]: 1.75 ± 0.02 kg
Body weight [4, 14]: 1.98 ± 0.08 kg
Body weight [4, 15]: 2.34 ± 0.04 kg
Body weight [4, 16]: 2.35 ± 0.10 kg
Serum HDL-C levels [5, 18]: 0.83 ± 0.08 mmol/L
Serum LDL-C levels [5, 18]: 0.89 ± 0.14 mmol/L
Serum Triglyceride levels [5, 18]: 1.30 ± 0.19 mmol/L
Serum VLDL-C levels [5, 18]: 0.59 ± 0.09 mmol/L
Total serum cholesterol levels [5, 18]: 2.31 ± 0.19 mmol/L
Serum HDL-C levels [5, 19]: 0.76 ± 0.42 mmol/L
Serum LDL-C levels [5, 19]: 75.98 ± 9.04 mmol/L
Serum Triglyceride levels [5, 19]: 0.97 ± 0.16 mmol/L
Serum VLDL-C levels [5, 19]: 0.44 ± 0.08 mmol/L
Total serum cholesterol levels [5, 19]: 77.24 ± 7.22 mmol/L
Serum HDL-C levels [5, 20]: 0.48 ± 0.10 mmol/L
Serum LDL-C levels [5, 20]: 58.68 ± 9.69 mmol/L
Serum Triglyceride levels [5, 20]: 0.87 ± 0.20 mmol/L
Serum VLDL-C levels [5, 20]: 0.39 ± 0.09 mmol/L
Total serum cholesterol levels [5, 20]: 59.61 ± 9.8 mmol/L
Body weight [6, 18]: 1.47 ± 0.02 kg
Body weight [6, 19]: 2.45 ± 0.04 kg
reduction of hypercholesterolemic atherosclerosis and of total blood cholesterol [7]: accomplishes both
Mean aortic blood pressure (mAo), ET-induced fall [8]: prevented the ET-induced fall in mAO up to 30 min
Left ventricular MDA (LV-MDA), ET-induced increase ([8]; 3 hours): prevented the ET-induced increase in LV-MDA
antioxidant reserve (LV-CL), ET-induced decrease ([8]; 3 hours): prevented the ET-induced decrease in antioxidant reserve
# Rats Developing Diabetes [9, 21]: 2 rats
percent of rats developing diabetes mellitus [9, 21]: 16.6%
Plasma Glucose ([9]; SDG 22 mg/kg orally for 3 days + STZ): 9.63 ± 0.71 mmol/L
preventing the development of diabetes, 44 mg/kg compared with 22 mg/kg ([9]; SDG 44 mg/kg): more effective than in the dose of 22 mg/kg
# Rats Developing Diabetes [9, 22]: 1 rats
percent of rats developing diabetes mellitus [9, 22]: 10%
Plasma Glucose ([9]; SDG 44 mg/kg orally for 3 days + STZ): 10.01 ± 0.76 mmol/L
plasma glucose levels compared with streptozotocin-treated group ([9]; SDG 22 and 44 mg/kg): much lower than those in streptozotocin-treated group
prevention of the development of STZ-induced diabetes mellitus ([9]; SDG 22 and 44 mg/kg, overall): approximately 81%
rats that developed diabetes ([10]; orally in drinking water, up to 120 days, untreated BBdp 72.7%): 21.4%
prevention of the development of diabetes ([10]; orally in drinking water, vs untreated BBdp): 70.55%
Pancreatic / serum MDA ([10]; both nondiabetic and diabetic, vs untreated BBdp): lower in the SDG-treated group in both nondiabetic and diabetic as compared to untreated BBdp rats
serum glucose, rats that developed diabetes ([10]; compared with nondiabetic SDG-treated BBdp): higher than those not developing diabetes in this group
onset of diabetes ([10]; rats that developed diabetes): delayed the onset of diabetes in ones that developed diabetes
Pancreatic antioxidant reserve (Pancreatic-CL) ([10]; untreated BBdp vs control or SDG-treated group): slightly lower in the untreated group as compared to the control or SDG-treated group but were not significant
signs of diabetes [11]: showed no signs of diabetes

Vitamin E
reduction of hypercholesterolemic atherosclerosis ([1]; Vitamin E 40 mg/kg, rabbits): up to 73%
total blood cholesterol ([1]; Vitamin E 40 mg/kg, rabbits): without reducing the total blood cholesterol

Source: patent publication US5846944A (priority 1997, dated 1998)
